Experimental data as given in the supplement of paper PMC10307832.

Assays:
Experiment in all cases: relative viability (nuclei count vs DMSO), 5 days (fraction); higher = more cells survive
[1] = compound: CC(C)CCN1c2nc(Nc3cc(F)c(O)c(F)c3)ncc2N(C)C(=O)C1C [BI-D1870] + Cc1cc(Nc2cc(N3CCN(C)CC3)nc(Sc3ccc(NC(=O)C4CC4)cc3)n2)n[nH]1 [Tozasertib] (partner 0.1 µM)
Procedure, shortened: (§1)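 Relative viability divides the nuclei count in treated wells by that in vehicle wells. Lung cancer cell lines were seeded in 1536-well plates, dosed by pin tool the next day, and fixed and stained after 5 days in one step with final 0.05% Triton X-100, 1% formaldehyde and 1 ug/ml Hoechst. Dosing was a single drug or a fixed anchor-drug dose plus five library-drug doses (not always all listed) in √10 steps, and values are medians of duplicate plates imaged at 4×.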

[2] = compound: CC(C)CCN1c2nc(Nc3cc(F)c(O)c(F)c3)ncc2N(C)C(=O)C1C [BI-D1870] + O=C(c1cc(Cc2n[nH]c(=O)c3ccccc23)ccc1F)N1CCN(C(=O)C2CC2)CC1 [Olaparib] (partner 8 µM)
Procedure, shortened: as §1

[3] = compound: CC(C)CCN1c2nc(Nc3cc(F)c(O)c(F)c3)ncc2N(C)C(=O)C1C [BI-D1870] + CC(C)C[C@H](NC(=O)[C@H](Cc1ccccc1)NC(=O)c1cnccn1)B(O)O [Bortezomib] (partner 0.002 µM)
Procedure, shortened: as §1

[4] = compound: CC(C)CCN1c2nc(Nc3cc(F)c(O)c(F)c3)ncc2N(C)C(=O)C1C [BI-D1870] + CS(=O)(=O)CCNCc1ccc(-c2ccc3ncnc(Nc4ccc(OCc5cccc(F)c5)c(Cl)c4)c3c2)o1 [Lapatinib] (partner 2 µM)
Procedure, shortened: as §1

Row | Cell Line | relative viability ([1]; first compound 0.04 µM) | relative viability ([1]; first compound 0.1265 µM) | relative viability ([1]; first compound 0.4 µM) | relative viability ([1]; first compound 1.265 µM) | relative viability ([1]; first compound 4 µM) | relative viability ([2]; first compound 0.04 µM) | relative viability ([2]; first compound 0.1265 µM) | relative viability ([2]; first compound 0.4 µM) | relative viability ([2]; first compound 1.265 µM) | relative viability ([2]; first compound 4 µM) | relative viability ([3]; first compound 0.04 µM) | relative viability ([3]; first compound 0.1265 µM) | relative viability ([3]; first compound 0.4 µM) | relative viability ([3]; first compound 1.265 µM) | relative viability ([3]; first compound 4 µM) | relative viability ([4]; first compound 0.04 µM) | relative viability ([4]; first compound 0.1265 µM) | relative viability ([4]; first compound 0.4 µM) | relative viability ([4]; first compound 1.265 µM) | relative viability ([4]; first compound 4 µM)
1 | NCI-H2342 | 0.491 | 0.374 | 0.538 | 0.481 | 0.515 | 0.524 | 0.459 | 0.471 | 0.415 | 0.502 |  |  |  |  |  |  |  |  |  | 
2 | HCC-15 | 0.523 | 0.347 | 0.33 | 0.333 | 0.185 | 0.819 | 0.761 | 0.713 | 0.694 | 0.404 | 1.03 | 1.01 | 0.922 | 1.04 | 0.863 | 0.94 | 0.832 | 0.774 | 0.795 | 0.592
3 | A-427 | 0.202 | 0.213 | 0.21 | 0.238 | 0.221 | 0.71 | 0.647 | 0.659 | 0.705 | 0.551 | 1.08 | 1.01 | 0.936 | 1.08 | 0.968 | 1.05 | 0.981 | 0.957 | 1.21 | 1.09
4 | NCI-H2228 | 0.226 | 0.205 | 0.163 | 0.164 | 0.134 | 0.678 | 0.429 | 0.511 | 0.717 | 0.314 | 1.36 | 0.999 | 1.37 | 1.05 | 0.401 | 1.2 | 0.854 | 0.989 | 0.927 | 0.482
5 | NCI-H1734 | 0.249 | 0.263 | 0.288 | 0.256 | 0.22 | 0.684 | 0.545 | 0.605 | 0.673 | 0.463 | 1.21 | 0.904 | 0.874 | 0.893 | 0.602 | 1.27 | 1.07 | 0.975 | 1.01 | 0.72
6 | PC-14 | 0.62 | 0.561 | 0.55 | 0.659 | 0.367 | 0.364 | 0.251 | 0.273 | 0.197 | 0.138 | 0.95 | 0.909 | 0.809 | 0.963 | 0.559 | 0.36 | 0.301 | 0.343 | 0.395 | 0.269
7 | NCI-H1915 | 0.466 | 0.395 | 0.389 | 0.427 | 0.313 | 0.249 | 0.24 | 0.267 | 0.206 | 0.146 | 1.04 | 0.951 | 0.905 | 1.03 | 0.879 | 1.04 | 0.984 | 0.969 | 1.04 | 0.834
8 | NCI-H1666 | 0.673 | 0.569 | 0.584 | 0.569 | 0.537 | 0.751 | 0.715 | 0.736 | 0.7 | 0.72 | 0.871 | 0.598 | 0.985 | 0.879 | 0.754 | 0.825 | 0.543 | 0.639 | 0.909 | 0.383
9 | HCC-366 | 0.0892 | 0.057 | 0.055 | 0.0986 | 0.0506 | 0.503 | 0.348 | 0.295 | 0.42 | 0.229 | 1.1 | 0.911 | 1.05 | 1.1 | 0.317 | 1.09 | 1.01 | 1 | 1.21 | 0.389
10 | SK-MES-1 | 1.06 | 0.82 | 0.766 | 0.607 | 0.22 | 0.77 | 0.561 | 0.731 | 0.363 | 0.19 |  |  |  |  |  | 0.468 | 0.443 | 0.417 | 0.509 | 0.356
11 | SW 1573 | 0.175 | 0.16 | 0.159 | 0.176 | 0.175 | 0.602 | 0.415 | 0.432 | 0.419 | 0.191 | 1.08 | 0.907 | 0.883 | 0.986 | 0.577 | 1.13 | 1.16 | 1.11 | 1.25 | 1.14
12 | NCI-H661 | 0.355 | 0.337 | 0.336 | 0.354 | 0.381 | 0.781 | 0.746 | 0.738 | 0.737 | 0.58 | 0.801 | 0.67 | 0.695 | 1.01 | 0.808 | 0.56 | 0.406 | 0.45 | 0.442 | 0.499
13 | PC-3 [JPC-3] | 0.913 | 0.911 | 0.866 | 0.902 | 0.8 | 1.25 | 1.08 | 1.08 | 0.966 | 0.831 | 0.74 | 0.859 | 0.825 | 0.889 | 0.829 | 0.455 | 0.425 | 0.463 | 0.52 | 0.385
14 | NCI-H1623 | 0.404 | 0.412 | 0.478 | 0.452 | 0.376 |  |  |  |  |  |  |  |  |  |  |  |  |  |  | 
15 | Calu-6 |  |  |  |  |  | 0.658 | 0.534 | 0.479 | 0.359 | 0.254 | 0.972 | 0.914 | 1.05 | 0.845 | 0.361 | 1.07 | 0.977 | 1.09 | 0.931 | 0.868
16 | LC-2-ad | 0.561 | 0.479 | 0.443 | 0.367 | 0.373 | 0.691 | 0.66 | 0.725 | 0.609 | 0.624 | 1.11 | 0.921 | 0.999 | 1.04 | 0.953 | 1.04 | 0.932 | 0.975 | 1.08 | 0.971
17 | CAL-12T | 0.324 | 0.317 | 0.185 | 0.261 | 0.194 | 0.692 | 0.701 | 0.672 | 0.482 | 0.372 | 1.15 | 0.907 | 0.932 | 0.895 | 0.635 | 0.799 | 0.672 | 0.664 | 1.03 | 0.539
18 | RERF-LC-KJ | 0.467 | 0.398 | 0.418 | 0.338 | 0.239 | 1.09 | 0.831 | 0.936 | 0.914 | 0.306 | 1.12 | 0.997 | 1.13 | 1.25 | 0.946 | 0.886 | 0.783 | 0.8 | 0.821 | 0.863
